Tests used:
Type in all cases: cell-based
human H4 receptor [1] = target: T1, human H4 receptor (Homo sapiens, UniProt Q9H3N8); assay: H4 Antagonist Functional cAMP Gi Assay; conditions: HEKf cells expressing human H4 receptor, functional antagonist pKb by Cheng-Prusoff vs histamine; for Kb: read-out: Human H4 cAMP fpKb (converted)
T1 construct: expressed in transfected cells; host or cells: HEKf cells infected with baculovirus
Procedure: HEKf cells were infected overnight using baculovirus expressing the human H4 receptor, then centrifuged at 1,200 rpm for 5 min, frozen in cell freezing medium (Sigma) and stored at −150° C. On the day of assay, the cells were thawed and resuspended in HBSS with 500 nM IBMX to achieve a density of 1,500 cells/well. H4 ligands were prepared in DMSO and stamped by LabCyte ECHO acoustic dispensing at 25 nL in low volume plates. 10 μL/well cells were plated in the presence of 1 μM forskolin, subjected to centrifugation at 1,200 rpm for 1 min and incubated for 30 min prior to addition of Cisbio cAMP detection reagents to a total volume 20 μL/well. […] Following detection reagent addition and shaking at room temperature for 60 min, cAMP accumulation was measured using HTRF on a PheraStar plate reader. EC50 values were generated using a 4-parameter logistical fit equation to quantify agonist potencies. Functional antagonist affinity values were generated using the Cheng-Prusoff equation to calculate a pKb value using the antagonist assay data.

hERG [2] = target: T2, hERG (Homo sapiens, UniProt Q12809); assay: hERG single-concentration assay (QPatch automated patch clamp, CHO cells, 30 μM); conditions: CHO cells stably expressing hERG
T2 sequence (Q12809 whole entry): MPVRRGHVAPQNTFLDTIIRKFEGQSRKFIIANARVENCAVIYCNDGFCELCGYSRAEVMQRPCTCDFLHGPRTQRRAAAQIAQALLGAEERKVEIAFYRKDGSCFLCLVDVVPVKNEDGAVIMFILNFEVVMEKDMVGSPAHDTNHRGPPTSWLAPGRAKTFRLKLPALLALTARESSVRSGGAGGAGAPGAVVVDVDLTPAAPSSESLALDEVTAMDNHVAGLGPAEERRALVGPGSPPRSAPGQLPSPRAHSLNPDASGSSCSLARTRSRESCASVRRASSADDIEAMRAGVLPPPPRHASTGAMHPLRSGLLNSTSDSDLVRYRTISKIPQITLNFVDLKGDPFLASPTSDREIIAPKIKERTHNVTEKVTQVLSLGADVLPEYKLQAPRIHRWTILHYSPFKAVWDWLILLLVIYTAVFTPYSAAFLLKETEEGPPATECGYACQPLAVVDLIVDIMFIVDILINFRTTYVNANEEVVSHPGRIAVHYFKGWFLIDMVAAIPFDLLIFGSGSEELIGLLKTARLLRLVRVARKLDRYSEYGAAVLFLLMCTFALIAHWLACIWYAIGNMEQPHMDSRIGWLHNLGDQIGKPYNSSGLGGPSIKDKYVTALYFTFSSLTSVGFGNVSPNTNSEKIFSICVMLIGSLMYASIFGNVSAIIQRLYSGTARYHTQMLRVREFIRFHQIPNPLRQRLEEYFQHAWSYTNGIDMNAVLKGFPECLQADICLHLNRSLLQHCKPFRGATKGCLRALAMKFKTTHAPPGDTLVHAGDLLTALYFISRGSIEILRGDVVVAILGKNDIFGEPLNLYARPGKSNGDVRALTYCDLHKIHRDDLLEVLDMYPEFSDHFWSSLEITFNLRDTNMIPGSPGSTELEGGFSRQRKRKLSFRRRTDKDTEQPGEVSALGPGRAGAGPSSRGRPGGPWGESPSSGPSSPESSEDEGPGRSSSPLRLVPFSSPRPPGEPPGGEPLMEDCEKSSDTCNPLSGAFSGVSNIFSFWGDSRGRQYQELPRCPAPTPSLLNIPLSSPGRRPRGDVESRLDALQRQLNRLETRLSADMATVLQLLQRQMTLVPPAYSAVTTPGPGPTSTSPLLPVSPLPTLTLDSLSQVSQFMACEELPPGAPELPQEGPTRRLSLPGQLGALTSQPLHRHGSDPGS
From the text: (§1) Series resistance (4-15 MΩ) was compensated by >80%.

hERG [3] = target: T2, hERG; assay: hERG pIC50 assay (QPatch automated patch clamp, CHO cells, 1, 3, 10 and 30 μM); conditions: CHO cells expressing hERG, 1-30 μM, ≤4.0 = fails to reach >40% block at 30 μM
From the text: as §1

human H4 receptor [4] = target: T1, human H4 receptor; assay: H4 Antagonist Functional Dynamic Mass Redistribution Assay; conditions: HEKf cells expressing human H4 receptor, functional antagonist pKb by Cheng-Prusoff vs histamine EC80; for Kb: read-out: Human H4 DMR fpKb (converted)
Procedure: HEKf cells were infected using baculovirus expressing the human H4 receptor, plated into fibronectin-coated EPIC plates at a density of 10,000 cells/well and incubated overnight at 37° C. The medium on cells was changed to 30 μL HBSS with 20 mM HEPES per well and 30 nL DMSO were added per well by LabCyte ECHO acoustic dispensing. Following 2 h equilibration at room temperature, 30 nL of H4 ligands prepared in DMSO were stamped by LabCyte ECHO acoustic dispensing into seeded EPIC plates and cellular dynamic mass redistribution was monitored using a Corning EPIC plate reader. Following 45 min measurement, 30 nL/well of histamine EC80 was added and monitored to obtain antagonist assay data. Maximum baseline-corrected responses in pm were used to generate concentration response curves. EC50 values were generated using a 4-parameter logistical fit equation to quantify agonist potencies. Functional antagonist affinity values were generated using the Cheng-Prusoff equation to calculate a pKb value using the antagonist assay data.

Kb (human H4 receptor [1]) | Kb (human H4 receptor [4]) | SMILES | inhibition at 30 µM (hERG [2]) | IC50 (hERG [3]) | Human H4 cAMP fpKb (human H4 receptor [1]) | Human H4 DMR fpKb (human H4 receptor [4])
0.794 nM |  | CN[C@@H]1CCN(c2nc(N)nc3c2OC[C@@H](C(C)C)N3)C1 [Example 1-4, (R)-7-Isopropyl-4-((R)-3-(methylamino)pyrrolidin-1-yl)-7,8-dihydro-6H-pyrimido[5,4-b][1,4]oxazin-2-amine] | 20% | ≥ 100000 nM |  | 
0.631 nM |  | CC(C)[C@@H]1COc2c(nc(N)nc2N2CC[C@@H](N)C2)N1 [Example 2-2, (R)-4-((R)-3-Aminopyrrolidin-1-yl)-7-isopropyl-7,8-dihydro-6H-pyrimido[5,4-b][1,4]oxazin-2-amine] |  | ≥ 100000 nM |  | 
1.26 nM |  | CNC1CN(c2nc(N)nc3c2OC[C@@H](C(C)C)N3)C1 [Example 3-2, (R)-7-Isopropyl-4-(3-(methylamino)azetidin-1-yl)-7,8-dihydro-6H-pyrimido[5,4-b][1,4]oxazin-2-amine] | 26% | ≥ 100000 nM |  | 
2.51 nM | 5.01 nM | CN[C@@H]1CCN(c2nc(N)nc3c2OCC[C@@H](C)N3)C1 [Example 11-2, (R)-8-Methyl-4-((R)-3-(methylamino)pyrrolidin-1-yl)-6,7,8,9-tetrahydropyrimido[5,4-b][1,4]oxazepin-2-amine] | 13% |  |  | 
31.6 nM | 10 nM | CN[C@@H]1CCN(c2nc(N)nc3c2OCC[C@H](C)N3)C1 [Example 11-3, (S)-8-Methyl-4-((R)-3-(methylamino)pyrrolidin-1-yl)-6,7,8,9-tetrahydropyrimido[5,4-b][1,4]oxazepin-2-amine] |  |  |  | 
0.631 nM | 1.26 nM | CC[C@@H]1CCOc2c(nc(N)nc2N2CC[C@@H](NC)C2)N1 [Example 11-4, (R)-8-Ethyl-4-((R)-3-(methylamino)pyrrolidin-1-yl)-6,7,8,9-tetrahydropyrimido[5,4-b][1,4]oxazepin-2-amine] | 39% | ≥ 100000 nM |  | 
0.398 nM |  | CN[C@@H]1CCN(c2nc(N)nc3c2OCC[C@@H](C(C)C)N3)C1 [Example 11-5, (S)-8-Isopropyl-4-((R)-3-(methylamino)pyrrolidin-1-yl)-6,7,8,9-tetrahydropyrimido[5,4-b][1,4]oxazepin-2-amine] | 21% | ≥ 100000 nM |  | 
63.1 nM | 50.1 nM | CN[C@@H]1CCN(c2nc(N)nc3c2OCC(C(C)C)CN3)C1 (stereo partly drawn) [Example 11-9, 7-Isopropyl-4-((R)-3-(methylamino)pyrrolidin-1-yl)-6,7,8,9-tetrahydropyrimido[5,4-b][1,4]oxazepin-2-amine] |  |  |  | 
0.631 nM | 2.51 nM | CC(C)[C@@H]1CCOc2c(nc(N)nc2N2CC[C@@H](N)C2)N1 [Example 12-1, (S)-4-((R)-3-Aminopyrrolidin-1-yl)-8-isopropyl-6,7,8,9-tetrahydropyrimido[5,4-b][1,4]oxazepin-2-amine] |  | ≥ 100000 nM |  | 
1 nM | 1.58 nM | CNC1CN(c2nc(N)nc3c2OCC[C@@H](C(C)C)N3)C1 [Example 13-1, (S)-8-Isopropyl-4-(3-(methylamino)azetidin-1-yl)-6,7,8,9-tetrahydropyrimido[5,4-b][1,4]oxazepin-2-amine] | 15% | ≥ 100000 nM |  | 
3.16 nM | 0.794 nM | CN[C@@H]1CCN(c2ncnc3c2OCC[C@@H](C(C)C)N3)C1 [Example 14-1, (R)-1-((S)-8-Isopropyl-6,7,8,9-tetrahydropyrimido[5,4-b][1,4]oxazepin-4-yl)-N-methylpyrrolidin-3-amine] | 41% |  |  | 
 | 12.6 nM | CN[C@@H]1CCN(c2nc(N)nc3c2OCC2CCCC2N3)C1 (stereo partly drawn) [Example 17-1, 4-[(3R)-3-(methylamino)pyrrolidin-1-yl]-6a,7,8,9,9a, 10-hexahydro-6H-cyclopenta[e]pyrimido[5,4-b][1,4]oxazepin-2-amine] | 29% |  |  | 
 | 31.6 nM | CNC1CN(c2nc(N)nc3c2OCC2CCCC2N3)C1 (stereo not drawn) [Example 17-3, 4-[3-(methylamino)azetidin-1-yl]-6a, 7,8,9,9a, 10-hexahydro-6H-cyclopenta[e]pyrimido[5,4-b][1,4]oxazepin-2-amine] | 42% |  |  | 
 | 3.98 nM | CN[C@@H]1CCN(c2ncnc3c2OCC2(CC(F)(F)C2)N3)C1 [Example 17-13, (3R)-1-(3,3-difluoro-6′H,8′H-spiro[cyclobutane-1,7′-pyrimido[5,4-b][1,4]oxazin]-4′-yl)-N-methylpyrrolidin-3-amine] |  |  |  | 
 | 7.94 nM | CC[C@]1(C)COc2c(nc(N)nc2N2CC[C@@H](NC)C2)N1 [Example 17-14, 7-ethyl-7-methyl-4-[(3R)-3-(methylamino)pyrrolidin-1-yl]-7,8-dihydro-6H-pyrimido[5,4-b][1,4]oxazin-2-amine] |  |  |  | 
 | 7.94 nM | CN[C@@H]1CCN(c2nc(N)nc3c2OCC2(CC(F)(F)C2)N3)C1 [Example 17-15, 3,3-difluoro-4′-[(3R)-3-(methylamino)pyrrolidin-1-yl]-6′H,8′H-spiro[cyclobutane-1,7′-pyrimido[5,4-b][1,4]oxazin]-2′-amine] |  |  |  | 
 |  | CN1CCN(C(=O)c2cc3cc(Cl)ccc3[nH]2)CC1 [JNJ-7777120, reference compound] |  | 3980 nM |  | 
 |  | CC(C)c1cc(N2CC[C@@H](N)C2)nc(N)n1 [JNJ-39758979, reference compound] |  |  | 8.1 | 8.5

Source: patent US20240317775A1, “H4 Antagonist Compounds” (HEPTARES THERAPEUTICS LIMITED, priority 2020, published 2024)
